Experimental data reported in patent US20160143913A1, “COMBINATION” (Novartis AG, priority 2009, published 2016).
Read-outs that look alike come from different tables or passages of the source.

Legend:
HCT-8 = test: Cell growth inhibition assay (Cell Titer Glo), HCT-8; assay type: cell-based; details: Homo sapiens, 72 h; HCT-8 colon; KRAS_G13D; PIK3CA_E545K; single agent, 3 days, mean ± std
From the text: (§1) Human breast tumor line, MDA-MB-175-VII, human colon tumor lines, Colo-205, DLD-1, HCT-8, HT-29, LS-1034, NCI-H508, RKO, SW1417, SW1463, SW480, SW837 and T84, and human lung tumor lines, A427, A549, Calu 3, Calu 6, HCC827, NCI-H1155, NCI-H1355, NCI-H1792, NCI-H23, NCI-H727, SW1573 and SW900 were from ATCC. Human breast tumor line EFM-19 was from German Collection of Microorganisms and Cell Cultures. Human lung tumor line COR-L23 was from European Collection of Cell Cultures (UK). Human colon tumor line KM12 and human lung tumor line Hop62 were from National Cancer Institute. MV522 was from University of California at San Diego. All lines were cultured in RPMI 1640 medium containing 10% fetal bovine serum (FBS).
(§2) All cells were cultured for a minimum of 72 hours prior to cell plating. […] ATP levels were determined by adding Cell Titer Glo® (Promega) according to the manufacturer's protocol. Briefly, Cell Titer Glo® was added each plate, incubated for 30 minutes then luminescent signal was read on the SpectraMax L plate reader with a 0.5 sec integration time.
(§3) Inhibition of cell growth was estimated after treatment with compound or combination of compounds for three days and comparing the signal to cells treated with vehicle (DMSO). Cell growth was calculated relative to vehicle (DMSO) treated control wells. […]

NCI-H1792 = test: Cell growth inhibition assay (Cell Titer Glo), NCI-H1792; assay type: cell-based; details: Homo sapiens, 72 h; NCI-H1792 lung; KRAS_G12C; PIK3CA/PTEN WT; single agent, 3 days, mean ± std
From the text: as §1, §2, §3

NCI-H727 = test: Cell growth inhibition assay (Cell Titer Glo), NCI-H727; assay type: cell-based; details: Homo sapiens, 72 h; NCI-H727 lung; KRAS_G12V; PIK3CA/PTEN WT; single agent, 3 days, mean ± std
From the text: as §1, §2, §3

MDA-MB-175-VII = test: Cell growth inhibition assay (Cell Titer Glo), MDA-MB-175-VII; assay type: cell-based, Human; details: for IC50: Homo sapiens, 72 h, MDA-MB-175-VII breast, KRAS/RAF WT, PIK3CA/PTEN WT, single agent, 3 days, mean ± std
From the text: as §1
as §2, with “plating. Cells were assayed in a 96-well tissue culture plate (NUNC 136102) of RPMI medium containing 10% FBS for all cells at 1,000 cells per well.” for “plating.”
as §3
(§4) Combination effects on potency were evaluated using Combination Index (CI) which was calculated with the back-interpolated IC50 values and the mutually non-exclusive equation derived by Chou and Talalay (1): […]
(§5) The combination effects on the response scale were quantified by Excess Over Highest Single Agent (EOHSA) based on the concept of nonlinear blending as described in detail by Peterson and Novick (2007) and Peterson (2010) [(2;3) [Peterson and Novick, 2007; Peterson, 2010]. […]

human lung tumor lines = test: Cell growth inhibition assay, lung tumor lines; assay type: cell-based; details: COR-L23, A549, NCI-H1355, NCI-H1792, NCI-H23, Calu 6 and MV522, range over the lines, read-out: IC50s, single agent
From the text: as §1, §2, §3

SW1463 = test: Cell growth inhibition assay (Cell Titer Glo), SW1463; assay type: cell-based; details: Homo sapiens, 72 h; SW1463 colon; KRAS_G12C; PIK3CA/PTEN WT; single agent, 3 days, mean ± std
From the text: as §1, §2, §3

RKO = test: Cell growth inhibition assay (Cell Titer Glo), RKO; assay type: cell-based; details: Homo sapiens, 72 h; RKO colon; BRAF_V600E; PIK3CA_H1047R; single agent, 3 days, mean ± std
From the text: as §1, §2, §3

KM12 = test: Cell growth inhibition assay (Cell Titer Glo), KM12; assay type: cell-based; details: Homo sapiens, 72 h; KM12 colon; KRAS/RAF WT; PTEN_K267*; single agent, 3 days, mean ± std
From the text: as §1, §2, §3

NCI-H1155 = test: Cell growth inhibition assay (Cell Titer Glo), NCI-H1155; assay type: cell-based; details: Homo sapiens, 72 h; NCI-H1155 lung; KRAS_Q61H; PTEN_R233*; single agent, 3 days, mean ± std
From the text: as §1, §2, §3

human colon tumor lines = test: Cell growth inhibition assay, colon lines; assay type: cell-based
From the text: as §1
as §2, with “plating. Cells were assayed in a 96-well tissue culture plate (NUNC 136102) of RPMI medium containing 10% FBS for all cells at 1,000 cells per well.” for “plating.”
as §3, §4, §5

Calu6 = test: Cell growth inhibition assay (Cell Titer Glo), Calu6; assay type: cell-based; details: Homo sapiens, Calu-6, 72 h; Calu6 lung; KRAS_Q61K; PIK3CA/PTEN WT; single agent, 3 days, mean ± std
From the text: as §1, §2, §3

EFM-19 = test: Cell growth inhibition assay (Cell Titer Glo), EFM-19; assay type: cell-based; details: Homo sapiens, EFM-19, 72 h, EFM-19 breast; KRAS/RAF WT; PIK3CA_H1049L; single agent, 3 days, mean ± std
From the text: as §1, §2, §3

SW1417 = test: Cell growth inhibition assay (Cell Titer Glo), SW1417; assay type: cell-based; details: Homo sapiens, 72 h; SW1417 colon; BRAF_V600E; PIK3CA/PTEN WT; single agent, 3 days, mean ± std
From the text: as §1, §2, §3

SW900 = test: Cell growth inhibition assay (Cell Titer Glo), SW900; assay type: cell-based; details: Homo sapiens, 72 h; SW900 lung; KRAS_G12V; PIK3CA/PTEN WT; single agent, 3 days, mean ± std
From the text: as §1, §2, §3

LS-1034 = test: Cell growth inhibition assay (Cell Titer Glo), LS-1034; assay type: cell-based; details: Homo sapiens, 72 h; LS-1034 colon; KRAS_A146T; PIK3CA/PTEN WT; single agent, 3 days, mean ± std
From the text: as §1, §2, §3

SW1573 = test: Cell growth inhibition assay (Cell Titer Glo), SW1573; assay type: cell-based; details: Homo sapiens, 72 h; SW1573 lung; KRAS_G12C; PIK3CA_K111E; single agent, 3 days, mean ± std
From the text: as §1, §2, §3

T84 = test: Cell growth inhibition assay (Cell Titer Glo), T84; assay type: cell-based; details: Homo sapiens, 72 h; T84 colon; KRAS_G13D; PrK3CA_E542K; single agent, 3 days, mean ± std
From the text: as §1, §2, §3

HCC827 = test: Cell growth inhibition assay (Cell Titer Glo), HCC827; assay type: cell-based; details: Homo sapiens, 72 h; HCC827 lung; KRAS/RAF WT; PIK3CA/PTEN WT; EGFR E746_A750 deletion mutation; single agent, 3 days, mean ± std
From the text: as §1, §2, §3

HOP62 = test: Cell growth inhibition assay (Cell Titer Glo), HOP62; assay type: cell-based; details: Homo sapiens, HOP-62, 72 h; HOP62 lung; KRAS_G12C; PIK3CA/PTEN WT; single agent, 3 days, mean ± std
From the text: as §1, §2, §3

NCI-H1355 = test: Cell growth inhibition assay (Cell Titer Glo), NCI-H1355; assay type: cell-based; details: Homo sapiens, 72 h; NCI-H1355 lung; KRAS_G13C; PIK3CA/PTEN WT; single agent, 3 days, mean ± std
From the text: as §1, §2, §3

HT-29 = test: Cell growth inhibition assay (Cell Titer Glo), HT-29; assay type: cell-based; details: Homo sapiens, 72 h; HT-29 colon; BRAF_V600E; PIK3CA_P449T; single agent, 3 days, mean ± std
From the text: as §1, §2, §3

CaLu3 = test: Cell growth inhibition assay (Cell Titer Glo), CaLu3; assay type: cell-based; details: Homo sapiens, Calu-3, 72 h; CaLu3 lung; KRAS/RAF WT; PIK3CA/PTEN WT; HER2+; single agent, 3 days, mean ± std
From the text: as §1, §2, §3

A427 = test: Cell growth inhibition assay (Cell Titer Glo), A427; assay type: cell-based; details: Homo sapiens, A-427, 72 h; A427 lung; KRAS_G12D; PIK3CA/PTEN WT; single agent, 3 days, mean ± std
From the text: as §1, §2, §3

NCI-H508 = test: Cell growth inhibition assay (Cell Titer Glo), NCI-H508; assay type: cell-based; details: Homo sapiens, 72 h; NCI-H508 colon; BRAF_G596R; PIK3CA_E545K; single agent, 3 days, mean ± std
From the text: as §1, §2, §3

MV522 = test: Cell growth inhibition assay (Cell Titer Glo), MV522; assay type: cell-based; details: Homo sapiens, 72 h; MV522 lung; BRAF_V600E; PIK3CA/PTEN WT; single agent, 3 days, mean ± std
From the text: as §1, §2, §3

SW480 = test: Cell growth inhibition assay (Cell Titer Glo), SW480; assay type: cell-based; details: Homo sapiens, 72 h; SW480 colon; PIK3CA/PTEN WT; single agent, 3 days, mean ± std
From the text: as §1, §2, §3

Colo-205 = test: Cell growth inhibition assay (Cell Titer Glo), Colo-205; assay type: cell-based; details: Homo sapiens, 72 h; Colo-205 colon; BRAF_V600E; PIK3CA/PTEN WT; single agent, 3 days, mean ± std
From the text: as §1, §2, §3

COR-L23 = test: Cell growth inhibition assay (Cell Titer Glo), COR-L23; assay type: cell-based; details: Homo sapiens, 72 h; COR-L23 lung; KRAS_G12V; PIK3CA/PTEN WT; single agent, 3 days, mean ± std
From the text: as §1, §2, §3

SW837 = test: Cell growth inhibition assay (Cell Titer Glo), SW837; assay type: cell-based; details: Homo sapiens, 72 h; SW837 colon; KRAS_G12C; PIK3CA/PTEN WT; single agent, 3 days, mean ± std
From the text: as §1, §2, §3

DLD1 = test: Cell growth inhibition assay (Cell Titer Glo), DLD1; assay type: cell-based; details: Homo sapiens, DLD-1, 72 h; DLD1 colon; KRAS_G13D; PIK3CA_E545K; single agent, 3 days, mean ± std
From the text: as §1, §2, §3

NCI-H23 = test: Cell growth inhibition assay (Cell Titer Glo), NCI-H23; assay type: cell-based; details: Homo sapiens, 72 h; NCI-H23 lung; KRAS_G12C; PIK3CA/PTEN WT; single agent, 3 days, mean ± std
From the text: as §1, §2, §3

| IC50 (NCI-H1792) | IC50 (MDA-MB-175-VII) | IC50 (human lung tumor lines) | IC50 (SW1463) | IC50 (Calu6) | IC50 (SW1417) | IC50 (SW900) | IC50 (SW1573) | IC50 (HCC827) | IC50 (NCI-H1355) | IC50 (CaLu3) | IC50 (SW480) | IC50 (Colo-205) | Compound | IC50 (RKO) | IC50 (KM12) | IC50 (LS-1034) | IC50 (T84) | IC50 (HOP62) | IC50 (A427) | IC50 (COR-L23) | other results |
| --- | --- | --- | --- | --- | --- | --- | --- | --- | --- | --- | --- | --- | --- | --- | --- | --- | --- | --- | --- | --- | --- |
| 53 ± 16 nM | 96 ± 33 nM | 2 to 329 nM | 4 ± 3 nM | 4 ± 3 nM | 3 ± 1 nM | 127 nM | > 1000 nM | > 1000 nM | 52 ± 10 nM | 158 ± 19 nM | 37 ± 15 nM | 1 nM | CC(=O)Nc1cccc(-n2c(=O)n(C3CC3)c(=O)c3c(Nc4ccc(I)cc4F)n(C)c(=O)c(C)c32)c1 [Compound A, N-{3-[3-cyclopropyl-5-(2-fluoro-4-iodo-phenylamino)-6,8-dimethyl-2,4,7-trioxo-3,4,6,7-tetrahydro-2H-pyrido[4,3-d]pyrimidin-1-yl]phenyl}acetamide] | 18 ± 1 nM | 23 ± 21 nM | 5 nM | 61 ± 31 nM | > 1000 nM | 22 ± 3 nM | 329 ± 237 nM | IC50 (HCT-8): 55 ± 11 nM; IC50 (NCI-H727): 2 nM; sensitivity as a single agent (in words) (MDA-MB-175-VII; MDA-MB-175-VII cells): sensitive; IC50 (NCI-H1155): > 1000 nM; IC50 (human colon tumor lines; LS-1034, Colo-205, SW1463, HT29, SW480 and SW1417, read-out: IC50, single agent): ≤ 37 nM; IC50 (human colon tumor lines; colon lines depicted in Table 1, range over the lines, read-out: IC50s, single agent): 1 to 632 nM; IC50 (EFM-19): > 1000 nM; IC50 (HT-29): 2 ± 1 nM; IC50 (NCI-H508): 23 ± 2 nM; IC50 (MV522): 2 ± 1 nM |
| 7310 ± 2870 nM | < 1000 nM | 2000 to 7000 nM | 9720 ± 139 nM | 2150 ± 890 nM | > 10000 nM | > 10000 nM | > 8000 nM | > 8000 nM | 6680 ± 3490 nM | > 8000 nM | > 10000 nM | 2570 ± 137 nM | Cn1ncc(Cl)c1-c1cc(C(=O)N[C@H](CN)Cc2cccc(F)c2)sc1Cl [Compound B, N-{(1S)-2-amino-1-[(3-fluorophenyl)methyl]ethyl}-5-chloro-4-(4-chloro-1-methyl-1H-pyrazol-5-yl)-2-thiophenecarboxamide] | 1810 ± 674 nM | 2250 ± 1180 nM | 4340 ± 1770 nM | > 10000 nM | > 10000 nM | > 8000 nM | 5370 ± 3520 nM | IC50 (human colon tumor lines; a subset of these colon cell lines (modest sensitivity), range over the lines, read-out: IC50 values, single agent): 500 to 5000 nM; IC50 (SW837): > 10000 nM; IC50 (DLD1): > 10000 nM; IC50 (NCI-H23): 7120 ± 3800 nM |
